For this assay, the system named is induced-Visceral sensory neurons (i-VSN). Kind of assay: Live cell calcium imaging of induced-Visceral sensory neurons after compound treatment. Format: cell-based, human. Particulars: real-time calcium imaging, FLIPR Calcium 6 Assay Kit, FIGS. 7a-7f. The method, then: For Live cell calcium imaging, the FLIPR Calcium 6 Assay Kit ([…], Molecular Devices) was used. The overall steps were performed according to the manufacturer's protocol. The test solution, in which components A and B were mixed, was incubated in an incubator at 37° C. for 2 hours, and during this process, the carbon dioxide concentration was maintained at 5%. Then, after treatment with a fluorescent substance, the fluorescence signal was detected for 5 minutes using an EVOS live imaging system (Thermo-Fisher) capable of maintaining a temperature of 37° C., a 5% carbon dioxide concentration, and 80% humidity. The detected signals were obtained by video or continuous snapshots (once per second). In order to confirm the functional aspect of the induced Visceral sensory neurons, the changes in the activity of the neurons were measured using a real-time calcium imaging technique after treating the Visceral sensory neurons with various compounds known to stimulate the same. A total of three compounds (i.e., liraglutide, CCK-8, and capsaicin) were used. Liraglutide corresponds to an agonist of GLP1R and is known to activate the nodose ganglion. […] CCK-8 is an agonist of the CCK receptor and is known to be able to stimulate the nodose ganglion as well. […] Capsaicin is a compound that has excitotoxicity toward TRPV1 and is known to detect pain and heat sensations in the nodose ganglion. […]

Take `COc1cc(CNC(=O)CCCC/C=C/C(C)C)ccc1O` [Capsaicin]: the “change in neuron activity (calcium signal) after treatment” value is given as “induced the activity”.

Take CCK-8: the “change in neuron activity (calcium signal) after treatment” value is on record as “calcium signal was amplified”.

Values taken from US20260258351A1, “METHOD FOR DIFFERENTIATING VISCERAL SENSORY NEURONS FROM HUMAN INDUCED PLURIPOTENT STEM CELLS” (SEOUL NATIONAL UNIVERSITY R&DB FOUNDATION, priority 2022, published 2026).
